SMILES strings stand for the structures.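 How tested: cells in 96-well plates exposed to compound for 48 hours at five concentrations. GI50 is the concentration that inhibits growth by half. TGI denotes the concentration required for complete inhibition of growth.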 Some results are limits rather than exact numbers.

This passage reports GI50 and TGI results from PubChem BioAssay (NCI).

Test systems include MOLT-4 leukemia; COLO 205 colon; NCI-H460 lung; UACC-62 melanoma; SF-295 CNS; RXF 393 renal; M14 melanoma; HCT-15 colon; IGROV1 ovarian; HOP-62 NSCLC.
Experiment in all cases: NCI-60 cell line screen, 48 h

`CCCCCCCCCCCCCCCC(N)c1ccccc1` (stereo not given): the GI50 in the assay with MOLT-4 leukemia is 1.58 µM; in the assay with COLO 205 colon, 1.68 µM; in the assay with NCI-H460 lung, 1.91 µM; in the assay with UACC-62 melanoma, 1.66 µM; with SF-295 CNS it was 1.73 µM; in the assay with RXF 393 renal, 1.71 µM. Moreover, the GI50 is 1.7 µM in the assay with M14 melanoma, 1.67 µM in the assay with HCT-15 colon, 1.78 µM with IGROV1 ovarian and 1.23 µM with HOP-62 NSCLC. Further, the TGI in the assay with MOLT-4 leukemia came out at 3.42 µM; with COLO 205 colon it was 3.14 µM; with NCI-H460 lung, 3.55 µM; in the assay with UACC-62 melanoma, 3.21 µM; in the assay with SF-295 CNS it was 3.35 µM; in the assay on RXF 393 renal, 3.41 µM. Also, the TGI in the assay with M14 melanoma came to 3.15 µM; in the assay with HCT-15 colon it was 3.09 µM; in the assay with IGROV1 ovarian, 3.44 µM; in the assay with HOP-62 NSCLC, 2.62 µM.

Turning to `O=C1C=C(OCC=C(Cl)Cl)C(=O)c2ccccc21`, the GI50 with MOLT-4 leukemia is 2.34 µM; with COLO 205 colon it was 4.39 µM; with NCI-H460 lung, 39.3 µM; in the assay with UACC-62 melanoma, 2.51 µM; in the assay on SF-295 CNS, 12.7 µM; in the assay with RXF 393 renal, 2.46 µM. Besides, the GI50 with M14 melanoma was 3.73 µM; with HCT-15 colon, 7.05 µM; with IGROV1 ovarian, 4.04 µM; in the assay on HOP-62 NSCLC, 54.9 µM. The TGI in the assay on MOLT-4 leukemia was above 24 µM; in the assay with COLO 205 colon, 12.1 µM; with NCI-H460 lung, above 100 µM; with UACC-62 melanoma, 7.64 µM; with SF-295 CNS, above 65.8 µM; in the assay with RXF 393 renal, 11.1 µM. The TGI was 30.2 µM in the assay with M14 melanoma, above 100 µM in the assay with HCT-15 colon, 23.5 µM in the assay on IGROV1 ovarian and above 100 µM in the assay with HOP-62 NSCLC.

For the compound `O=C1/C(=C/c2cccc(F)c2)CN(C(=O)C(Cl)Cl)C/C1=C\c1cccc(F)c1`, the GI50 is 0.0905 µM in the assay on MOLT-4 leukemia; 0.332 µM in the assay on COLO 205 colon; 0.318 µM with NCI-H460 lung; 0.191 µM in the assay on UACC-62 melanoma; 0.217 µM in the assay on SF-295 CNS; 0.194 µM in the assay on RXF 393 renal. The GI50 was 0.258 µM in the assay with M14 melanoma, 0.0855 µM in the assay on HCT-15 colon, 0.209 µM with IGROV1 ovarian and 0.353 µM with HOP-62 NSCLC. Moreover, the TGI worked out at 3.6 µM with MOLT-4 leukemia; 1.16 µM with COLO 205 colon; 1.09 µM in the assay on NCI-H460 lung; 0.43 µM in the assay with UACC-62 melanoma; 0.629 µM in the assay with SF-295 CNS; 0.397 µM in the assay with RXF 393 renal. Also, the TGI in the assay on M14 melanoma came to 0.872 µM; with HCT-15 colon, 0.312 µM; in the assay with IGROV1 ovarian it was 0.531 µM; in the assay on HOP-62 NSCLC it was 1.19 µM.

Consider `CC(=O)N1CCN(C=S)CC1`, for which the TGI with MOLT-4 leukemia, with COLO 205 colon, in the assay with NCI-H460 lung, with UACC-62 melanoma, in the assay on SF-295 CNS and in the assay on RXF 393 renal was above 100 µM throughout. The TGI in the assay with M14 melanoma, with HCT-15 colon, with IGROV1 ovarian and in the assay with HOP-62 NSCLC was above 100 µM each time.

On to `NS(=O)(=O)c1ccc(N=Nc2c(=O)[nH]c3ccc4[nH]cccc4c23)cc1`, for which the GI50 in the assay with MOLT-4 leukemia was 0.632 µM; with COLO 205 colon it was 0.376 µM; in the assay with NCI-H460 lung, 0.792 µM; in the assay with UACC-62 melanoma, 0.487 µM; with SF-295 CNS it was 0.883 µM; in the assay with RXF 393 renal, 0.15 µM. In addition, the GI50 in the assay with M14 melanoma is 0.82 µM; with HCT-15 colon, 2.12 µM; in the assay with IGROV1 ovarian it was 0.789 µM; in the assay with HOP-62 NSCLC it was 0.653 µM. Moreover, the TGI is 3.31 µM in the assay on MOLT-4 leukemia; 0.913 µM in the assay on COLO 205 colon; above 25 µM in the assay on NCI-H460 lung; 1.62 µM in the assay on UACC-62 melanoma; above 25 µM with SF-295 CNS; 0.449 µM with RXF 393 renal. Further, the TGI is 5.64 µM in the assay with M14 melanoma, above 25 µM in the assay with HCT-15 colon, above 25 µM with IGROV1 ovarian and above 25 µM with HOP-62 NSCLC.

For the compound `ClCCCN1CCCCC1CCl` (stereo not given), the TGI with MOLT-4 leukemia, with COLO 205 colon, with NCI-H460 lung, in the assay with UACC-62 melanoma, in the assay with SF-295 CNS and in the assay with RXF 393 renal was above 100 µM each time. Besides, the TGI in the assay with M14 melanoma, in the assay with HCT-15 colon, in the assay on IGROV1 ovarian and in the assay with HOP-62 NSCLC was above 100 µM in each case.

With `COc1cc(OC)c2c(c1Cl)O[C@]1(C2=O)C(OCc2ccccc2)=CC(=O)C[C@H]1C`, the GI50 with MOLT-4 leukemia is 0.826 µM; in the assay on COLO 205 colon it was 0.43 µM; with NCI-H460 lung it was 0.401 µM; in the assay on UACC-62 melanoma, 0.72 µM; in the assay on SF-295 CNS, 0.492 µM; with RXF 393 renal it was 0.899 µM. Besides, the GI50 was 0.612 µM with M14 melanoma, 0.487 µM in the assay with HCT-15 colon, 2.79 µM with IGROV1 ovarian and 1.36 µM in the assay with HOP-62 NSCLC. Also, the TGI was 8.79 µM with MOLT-4 leukemia; 1.69 µM in the assay on COLO 205 colon; 12.6 µM in the assay on NCI-H460 lung; 18.6 µM in the assay on UACC-62 melanoma; 5.59 µM in the assay with SF-295 CNS; 29.1 µM in the assay with RXF 393 renal. In addition, the TGI in the assay on M14 melanoma is 40.5 µM; in the assay on HCT-15 colon, above 100 µM; in the assay with IGROV1 ovarian, 79.6 µM; with HOP-62 NSCLC, 62.2 µM.
